{"source": "patent US11912682B2", "about": "“Isoindolinone compounds” (Monte Rosa Therapeutics, Inc., priority 2021, dated 2024)", "data": [{"target": "GSPT1 (Homo sapiens (Human), UniProt P15170+Q96SW2)", "sequence (P15170 whole entry)": "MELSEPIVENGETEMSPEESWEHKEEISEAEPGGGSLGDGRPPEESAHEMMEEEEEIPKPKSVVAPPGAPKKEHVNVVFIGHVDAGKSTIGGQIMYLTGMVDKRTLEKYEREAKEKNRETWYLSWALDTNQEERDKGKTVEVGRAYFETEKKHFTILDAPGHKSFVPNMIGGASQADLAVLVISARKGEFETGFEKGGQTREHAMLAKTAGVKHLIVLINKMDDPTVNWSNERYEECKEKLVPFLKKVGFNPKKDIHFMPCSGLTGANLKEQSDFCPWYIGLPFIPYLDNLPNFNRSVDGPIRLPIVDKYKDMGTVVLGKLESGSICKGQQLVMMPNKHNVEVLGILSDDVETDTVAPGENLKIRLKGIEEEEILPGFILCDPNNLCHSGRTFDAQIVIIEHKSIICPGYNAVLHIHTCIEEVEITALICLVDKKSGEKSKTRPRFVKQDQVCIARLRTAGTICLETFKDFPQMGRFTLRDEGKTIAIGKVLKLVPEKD", "sequence (Q96SW2 whole entry)": "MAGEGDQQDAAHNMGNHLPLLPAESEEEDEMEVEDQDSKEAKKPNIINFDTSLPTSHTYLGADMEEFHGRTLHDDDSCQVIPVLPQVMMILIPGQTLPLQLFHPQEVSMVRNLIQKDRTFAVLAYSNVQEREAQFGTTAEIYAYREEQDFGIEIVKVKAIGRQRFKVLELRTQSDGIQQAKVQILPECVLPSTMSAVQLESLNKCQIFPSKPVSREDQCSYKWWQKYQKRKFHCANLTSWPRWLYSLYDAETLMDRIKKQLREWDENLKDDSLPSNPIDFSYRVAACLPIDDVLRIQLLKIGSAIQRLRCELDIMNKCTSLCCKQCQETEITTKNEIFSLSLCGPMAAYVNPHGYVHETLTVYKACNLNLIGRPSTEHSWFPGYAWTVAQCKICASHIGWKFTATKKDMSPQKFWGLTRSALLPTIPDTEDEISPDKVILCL", "sequence (Q16531 2-1140 partner)": "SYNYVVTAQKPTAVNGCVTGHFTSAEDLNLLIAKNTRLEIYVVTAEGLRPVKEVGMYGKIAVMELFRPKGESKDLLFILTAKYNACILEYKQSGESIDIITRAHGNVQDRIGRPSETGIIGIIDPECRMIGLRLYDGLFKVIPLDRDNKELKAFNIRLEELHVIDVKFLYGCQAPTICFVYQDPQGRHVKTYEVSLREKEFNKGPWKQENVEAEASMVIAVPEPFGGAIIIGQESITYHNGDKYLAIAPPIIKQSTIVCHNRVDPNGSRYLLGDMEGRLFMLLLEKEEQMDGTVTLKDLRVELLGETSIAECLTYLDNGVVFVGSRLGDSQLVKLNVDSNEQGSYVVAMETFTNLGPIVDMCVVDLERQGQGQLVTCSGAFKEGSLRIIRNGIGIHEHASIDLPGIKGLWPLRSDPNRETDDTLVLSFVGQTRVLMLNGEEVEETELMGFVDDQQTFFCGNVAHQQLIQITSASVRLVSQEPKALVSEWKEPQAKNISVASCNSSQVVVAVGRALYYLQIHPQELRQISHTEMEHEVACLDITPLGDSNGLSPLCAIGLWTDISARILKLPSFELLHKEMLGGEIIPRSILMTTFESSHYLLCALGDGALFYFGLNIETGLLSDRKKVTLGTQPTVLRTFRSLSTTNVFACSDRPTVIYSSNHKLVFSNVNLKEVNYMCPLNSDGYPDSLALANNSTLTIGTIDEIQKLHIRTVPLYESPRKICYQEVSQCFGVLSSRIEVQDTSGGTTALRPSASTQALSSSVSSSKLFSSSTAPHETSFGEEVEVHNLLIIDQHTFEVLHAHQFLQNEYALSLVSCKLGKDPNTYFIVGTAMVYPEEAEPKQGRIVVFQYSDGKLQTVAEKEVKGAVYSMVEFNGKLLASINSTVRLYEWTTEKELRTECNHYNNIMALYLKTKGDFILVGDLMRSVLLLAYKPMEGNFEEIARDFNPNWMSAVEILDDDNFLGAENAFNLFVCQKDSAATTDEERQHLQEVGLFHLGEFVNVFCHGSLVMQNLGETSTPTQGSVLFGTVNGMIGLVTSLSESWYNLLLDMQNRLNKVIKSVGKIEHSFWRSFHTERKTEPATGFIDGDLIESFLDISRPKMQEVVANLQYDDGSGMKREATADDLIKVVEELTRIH", "assay": "immunofluorescence assay for GSPT1 degradation in CAL-51 cells (Example 10)", "type": "cell-based", "details": "CAL-51 cells, 6 h; read-out: IF Class (GSPT1 degradation DC50)", "procedure": "The representative compounds were tested in an immunofluorescence assay for their activity to degrade GSPT1. […] Compounds were stored at 10 mM DMSO stocks. […] Cells were subsequently rinsed with PBS and fixed in 10% Formalin solution (50 μl, Sigma HT5011)) for 20 mins at room temperature. […] Following three further PBS washes, 50 μL blocking buffer (1% BSA, Sigma A4503, in PBS) was added for 45 min for signal-to noise reduction. Primary antibody (human GSPT1, Sigma HPA052488) was diluted in blocking buffer (dil.1/300, 35 μL/well) and incubated with the cells overnight at 4° C. […] After three final PBS washes, samples were conserved in 100 μL PBS in the dark, until measurement. Image acquisition was performed on the Operetta High-Content Imager (Perkin-Elmer). […] For the determination of GSPT1 DC50 values, a custom algorithm implemented in the PerkinElmer image analysis software Harmony-Acapella® was developed. After user-defined setting of adjustment parameters, the analysis was run identically without human intervention for all image fields. DAPI staining of the nuclei was used to determine the location of cells using standard nuclei detection modules. Segmentation artifacts were removed by threshold-based filters for area, roundness and intensity. The outline of the cells was determined analogously from the sum of the normalized, smoothed DAPI and Actin channel, starting from each nucleus. […] GSPT1 degradation (DC50) was calculated after normalization to controls and data import in CDD vault Database, using non-linear regression.", "units": {"DC50": "nM"}, "values": [{"molecule": "CCc1cccc(NC(=O)OCc2ccc3c(c2)C(=O)N(C2CCC(=O)NC2=O)C3)c1", "note": "(stereo not drawn) [Compound 220, (2-(2,6-dioxopiperidin-3-yl)-3-oxoisoindolin-5-yl)methyl (3-ethylphenyl)carbamate]", "DC50": "< 30"}, {"molecule": "Cc1cc(F)c(NC(=O)OCc2ccc3c(c2)C(=O)N(C2CCC(=O)NC2=O)C3)cc1C(F)(F)F", "note": "(stereo not drawn) [Compound 233]", "DC50": "30 to 300"}, {"molecule": "O=C1CCC(N2Cc3ccc(COC(=O)Nc4cc(F)c5c(c4)CCO5)cc3C2=O)C(=O)N1", "note": "(stereo not drawn) [Compound 212, (2-(2,6-dioxopiperidin-3-yl)-3-oxoisoindolin-5-yl)methyl (7-fluoro-2,3-dihydrobenzofuran-5-yl)carbamate]", "DC50": "< 30"}, {"molecule": "O=C1CCC(N2Cc3ccc(COC(=O)Nc4ccc(C5CCC5)cc4F)cc3C2=O)C(=O)N1", "note": "(stereo not drawn) [Compound 164, (2-(2,6-dioxopiperidin-3-yl)-3-oxoisoindolin-5-yl)methyl (4-cyclobutyl-2-fluorophenyl)carbamate]", "DC50": "> 300"}, {"molecule": "O=C1CCC(N2Cc3ccc(COC(=O)NC45CC(N6CCOCC6)(C4)C5)cc3C2=O)C(=O)N1", "note": "(stereo not drawn) [Compound 215, (2-(2,6-dioxopiperidin-3-yl)-3-oxoisoindolin-5-yl)methyl (3-morpholinobicyclo[1.1.1]pentan-1-yl)carbamate]", "DC50": "> 300"}, {"molecule": "O=C1CCC(N2Cc3ccc(COC(=O)Nc4ccc(F)c(OC(F)F)c4F)cc3C2=O)C(=O)N1", "note": "(stereo not drawn) [Compound 191, (2-(2,6-dioxopiperidin-3-yl)-3-oxoisoindolin-5-yl)methyl (3-(difluoromethoxy)-2,4-difluorophenyl) carbamate]", "DC50": "30 to 300"}, {"molecule": "O=C1CCC(N2Cc3ccc(COC(=O)NC45CC(CF)(C4)C5)cc3C2=O)C(=O)N1", "note": "(stereo not drawn) [Compound 202, (2-(2,6-dioxopiperidin-3-yl)-3-oxoisoindolin-5-yl)methyl (3-(fluoromethyl)bicyclo[1.1.1]pentan-1-yl) carbamate]", "DC50": "> 300"}, {"molecule": "O=C1CCC(N2Cc3ccc(COC(=O)Nc4cccc(Cl)c4)cc3C2=O)C(=O)N1", "note": "(stereo not drawn) [Compound 239, (2-(2,6-dioxopiperidin-3-yl)-3-oxoisoindolin-5-yl)methyl (3-chlorophenyl)carbamate]", "DC50": "< 30"}, {"molecule": "CC(C)(C)Oc1ccc(F)c(NC(=O)OCc2ccc3c(c2)C(=O)N(C2CCC(=O)NC2=O)C3)c1", "note": "(stereo not drawn) [Compound 222, (2-(2,6-dioxopiperidin-3-yl)-3-oxoisoindolin-5-yl)methyl (5-(tert-butoxy)-2-fluorophenyl)carbamate]", "DC50": "30 to 300"}, {"molecule": "Cc1cc2c(c(NC(=O)OCc3ccc4c(c3)C(=O)N(C3CCC(=O)NC3=O)C4)c1)OCC2", "note": "(stereo not drawn) [Compound 182]", "DC50": "> 300"}, {"molecule": "O=C1CCC(N2Cc3ccc(COC(=O)Nc4cc(OC(F)(F)F)c(F)cc4F)cc3C2=O)C(=O)N1", "note": "(stereo not drawn) [Compound 200, (2-(2,6-dioxopiperidin-3-yl)-3-oxoisoindolin-5-yl)methyl (2,4-difluoro-5-(trifluoromethoxy)phenyl)carbamate]", "DC50": "30 to 300"}, {"molecule": "O=C1CCC(N2Cc3ccc(COC(=O)Nc4cccc(OC(F)(F)F)c4F)cc3C2=O)C(=O)N1", "note": "(stereo not drawn) [Compound 169]", "DC50": "30 to 300"}, {"molecule": "CC(C)(O)c1ccc(NC(=O)OCc2ccc3c(c2)C(=O)N(C2CCC(=O)NC2=O)C3)cc1", "note": "(stereo not drawn) [Compound 195, (2-(2,6-dioxopiperidin-3-yl)-3-oxoisoindolin-5-yl)methyl (4-(2-hydroxypropan-2-yl)phenyl)carbamate]", "DC50": "> 300"}, {"molecule": "O=C1CCC(N2Cc3ccc(COC(=O)NC4CN(c5ccccc5)C4)cc3C2=O)C(=O)N1", "note": "(stereo not drawn) [Compound 167]", "DC50": "> 300"}, {"molecule": "O=C1CCC(N2Cc3ccc(COC(=O)Nc4cc(Cl)cc5c4OCC5)cc3C2=O)C(=O)N1", "note": "(stereo not drawn) [Compound 189]", "DC50": "30 to 300"}, {"molecule": "Cc1cc(NC(=O)OCc2ccc3c(c2)C(=O)N(C2CCC(=O)NC2=O)C3)ncc1N1CCCC1", "note": "(stereo not drawn) [Compound 194, (2-(2,6-dioxopiperidin-3-yl)-3-oxoisoindolin-5-yl)methyl (4-methyl-5-(pyrrolidin-1-yl)pyridin-2-yl) carbamate]", "DC50": "> 300"}, {"molecule": "Cc1cc(NC(=O)OCc2ccc3c(c2)C(=O)N(C2CCC(=O)NC2=O)C3)cc(C#N)c1C", "note": "(stereo not drawn) [Compound 186]", "DC50": "< 30"}, {"molecule": "O=C1CCC(N2Cc3ccc(COC(=O)Nc4ccc(C(O)C(F)(F)F)cc4)cc3C2=O)C(=O)N1", "note": "(stereo not drawn) [Compound 209, (2-(2,6-dioxopiperidin-3-yl)-3-oxoisoindolin-5-yl)methyl (4-(2,2,2-trifluoro-1-hydroxyethyl)phenyl) carbamate]", "DC50": "> 300"}, {"molecule": "O=C1CCC(N2Cc3ccc(COC(=O)NC4CN(Cc5ccccc5)C4)cc3C2=O)C(=O)N1", "note": "(stereo not drawn) [Compound 168]", "DC50": "> 300"}, {"molecule": "C[C@@H]1CCCN1c1cnc(NC(=O)OCc2ccc3c(c2)C(=O)N(C2CCC(=O)NC2=O)C3)c(F)c1", "note": "(stereo partly drawn) [Compound 232, (2-(2,6-dioxopiperidin-3-yl)-3-oxoisoindolin-5-yl)methyl (3-fluoro-5-((R)-2-methylpyrrolidin-1-yl)pyridin-2-yl)carbamate]", "DC50": "30 to 300"}, {"molecule": "Cc1ccc(NC(=O)OCc2ccc3c(c2)C(=O)N(C2CCC(=O)NC2=O)C3)nc1Cl", "note": "(stereo not drawn) [Compound 183, (2-(2,6-dioxopiperidin-3-yl)-3-oxoisoindolin-5-yl)methyl (6-chloro-5-methylpyridin-2-yl)carbamate]", "DC50": "30 to 300"}, {"molecule": "O=C1CCC(N2Cc3ccc(COC(=O)NC45CC(C(F)F)(C4)C5)cc3C2=O)C(=O)N1", "note": "(stereo not drawn) [Compound 219, (2-(2,6-dioxopiperidin-3-yl)-3-oxoisoindolin-5-yl)methyl (3-(difluoromethyl)bicyclo[1.1.1]pentan-1-yl) carbamate]", "DC50": "> 300"}, {"molecule": "O=C1CCC(N2Cc3ccc(COC(=O)NC45CC(C4)C5)cc3C2=O)C(=O)N1", "note": "(stereo not drawn) [Compound 193, (2-(2,6-dioxopiperidin-3-yl)-3-oxoisoindolin-5-yl)methyl bicyclo[1.1.1]pentan-1-ylcarbamate]", "DC50": "> 300"}, {"molecule": "Cc1cc(F)c(NC(=O)OCc2ccc3c(c2)C(=O)N(C2CCC(=O)NC2=O)C3)cc1Br", "note": "(stereo not drawn) [Compound 197, (2-(2,6-dioxopiperidin-3-yl)-3-oxoisoindolin-5-yl)methyl (5-bromo-2-fluoro-4-methylphenyl)carbamate]", "DC50": "30 to 300"}, {"molecule": "Cc1cc(NC(=O)OCc2ccc3c(c2)C(=O)N(C2CCC(=O)NC2=O)C3)ncc1N1CCC[C@H]1C", "note": "(stereo partly drawn) [Compound 237, (2-(2,6-dioxopiperidin-3-yl)-3-oxoisoindolin-5-yl)methyl (4-methyl-5-((R)-2-methylpyrrolidin-1-yl)pyridin-2-yl)carbamate]", "DC50": "30 to 300"}, {"molecule": "Cc1cc(F)c(NC(=O)OCc2ccc3c(c2)C(=O)N(C2CCC(=O)NC2=O)C3)cc1F", "note": "(stereo not drawn) [Compound 213, (2-(2,6-dioxopiperidin-3-yl)-3-oxoisoindolin-5-yl)methyl (2,5-difluoro-4-methylphenyl)carbamate]", "DC50": "> 300"}, {"molecule": "Cc1cc(F)c(NC(=O)OCc2ccc3c(c2)C(=O)N(C2CCC(=O)NC2=O)C3)cc1OC(F)(F)F", "note": "(stereo not drawn) [Compound 204, (2-(2,6-dioxopiperidin-3-yl)-3-oxoisoindolin-5-yl) methyl (2-fluoro-4-methyl-5-(trifluoromethoxy)phenyl)carbamate]", "DC50": "30 to 300"}]}]}
